This is an account of results in patent US9340590B2 (priority 2011, dated 2016).

Positions of bridges follow the written chain, without caps; N, C: chain ends. Residues, ends and D or L forms follow the SMILES beside them.

Common to all, as to assay: cell-based
One test has as its target hNav1.7 (Homo sapiens, UniProt Q15858). Type of test: cell-based. The conditions noted are these: IonWorks Quattro, use-dependent block, hNav1.7; read-out: IWQ Use Nav1.7. Background: The patch-clamp technique gives a direct electrical read-out from membranes.
A further test has as its target hNav1.5 (Homo sapiens, UniProt Q14524). The conditions noted are these: IonWorks Quattro, use-dependent block, hNav1.5; read-out: IWQ Use Nav1.5.
A further test addresses hNav1.3 (Homo sapiens, UniProt Q9NY46). The conditions noted are these: IonWorks Quattro, use-dependent block, hNav1.3; read-out: IWQ Use Nav1.3.

Chain of hNav1.5 (Q14524 whole entry, looked up): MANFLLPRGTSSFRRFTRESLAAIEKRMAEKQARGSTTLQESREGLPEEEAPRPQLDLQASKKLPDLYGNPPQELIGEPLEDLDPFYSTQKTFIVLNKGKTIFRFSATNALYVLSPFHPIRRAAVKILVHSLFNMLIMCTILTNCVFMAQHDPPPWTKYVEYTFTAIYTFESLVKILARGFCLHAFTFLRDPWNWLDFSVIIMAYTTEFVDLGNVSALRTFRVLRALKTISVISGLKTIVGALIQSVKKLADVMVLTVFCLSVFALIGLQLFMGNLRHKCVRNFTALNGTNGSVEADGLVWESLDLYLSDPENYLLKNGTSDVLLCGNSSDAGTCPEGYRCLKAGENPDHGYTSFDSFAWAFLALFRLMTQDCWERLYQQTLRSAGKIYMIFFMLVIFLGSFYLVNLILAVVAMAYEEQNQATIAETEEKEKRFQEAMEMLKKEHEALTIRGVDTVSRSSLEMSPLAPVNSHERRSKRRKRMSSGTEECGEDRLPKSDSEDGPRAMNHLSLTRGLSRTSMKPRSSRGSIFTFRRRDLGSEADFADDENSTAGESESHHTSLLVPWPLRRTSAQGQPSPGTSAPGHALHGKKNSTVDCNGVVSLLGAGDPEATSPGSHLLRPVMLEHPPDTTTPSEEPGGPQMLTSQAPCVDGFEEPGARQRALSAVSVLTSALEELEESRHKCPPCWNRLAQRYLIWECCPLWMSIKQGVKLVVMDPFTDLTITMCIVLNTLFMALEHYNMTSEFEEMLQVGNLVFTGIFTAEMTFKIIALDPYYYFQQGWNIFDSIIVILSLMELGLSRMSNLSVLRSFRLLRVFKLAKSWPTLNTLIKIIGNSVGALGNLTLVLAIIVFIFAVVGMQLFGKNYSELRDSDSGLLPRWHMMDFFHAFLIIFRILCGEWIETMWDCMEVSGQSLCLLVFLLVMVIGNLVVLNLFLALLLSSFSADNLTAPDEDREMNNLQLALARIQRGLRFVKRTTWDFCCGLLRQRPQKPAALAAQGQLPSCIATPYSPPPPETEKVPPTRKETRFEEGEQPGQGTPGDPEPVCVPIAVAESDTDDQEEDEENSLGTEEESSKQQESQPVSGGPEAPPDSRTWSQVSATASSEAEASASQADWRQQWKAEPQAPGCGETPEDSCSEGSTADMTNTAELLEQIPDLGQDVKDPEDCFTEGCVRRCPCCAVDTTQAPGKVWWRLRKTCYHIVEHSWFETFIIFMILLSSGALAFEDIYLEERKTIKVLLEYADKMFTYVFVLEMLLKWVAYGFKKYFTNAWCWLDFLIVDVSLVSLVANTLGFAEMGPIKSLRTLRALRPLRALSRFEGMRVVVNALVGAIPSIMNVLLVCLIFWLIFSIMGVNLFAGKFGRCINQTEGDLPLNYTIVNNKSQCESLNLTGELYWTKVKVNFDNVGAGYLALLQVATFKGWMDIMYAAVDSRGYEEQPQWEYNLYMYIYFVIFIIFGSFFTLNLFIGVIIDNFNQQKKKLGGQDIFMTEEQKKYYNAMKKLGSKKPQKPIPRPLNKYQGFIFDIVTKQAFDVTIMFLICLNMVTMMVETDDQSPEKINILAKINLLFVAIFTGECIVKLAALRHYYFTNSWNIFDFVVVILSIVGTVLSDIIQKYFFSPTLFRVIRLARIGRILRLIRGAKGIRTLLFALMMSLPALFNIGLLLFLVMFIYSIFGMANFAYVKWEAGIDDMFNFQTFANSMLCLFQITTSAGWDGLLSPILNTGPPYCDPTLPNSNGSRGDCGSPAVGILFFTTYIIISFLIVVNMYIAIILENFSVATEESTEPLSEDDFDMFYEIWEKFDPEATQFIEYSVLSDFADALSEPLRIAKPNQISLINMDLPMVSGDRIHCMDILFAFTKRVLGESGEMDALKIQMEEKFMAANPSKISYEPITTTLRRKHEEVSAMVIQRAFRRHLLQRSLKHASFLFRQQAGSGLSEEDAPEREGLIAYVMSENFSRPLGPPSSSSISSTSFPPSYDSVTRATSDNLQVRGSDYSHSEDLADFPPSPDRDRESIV
Chain of hNav1.3 (Q9NY46 whole entry, looked up): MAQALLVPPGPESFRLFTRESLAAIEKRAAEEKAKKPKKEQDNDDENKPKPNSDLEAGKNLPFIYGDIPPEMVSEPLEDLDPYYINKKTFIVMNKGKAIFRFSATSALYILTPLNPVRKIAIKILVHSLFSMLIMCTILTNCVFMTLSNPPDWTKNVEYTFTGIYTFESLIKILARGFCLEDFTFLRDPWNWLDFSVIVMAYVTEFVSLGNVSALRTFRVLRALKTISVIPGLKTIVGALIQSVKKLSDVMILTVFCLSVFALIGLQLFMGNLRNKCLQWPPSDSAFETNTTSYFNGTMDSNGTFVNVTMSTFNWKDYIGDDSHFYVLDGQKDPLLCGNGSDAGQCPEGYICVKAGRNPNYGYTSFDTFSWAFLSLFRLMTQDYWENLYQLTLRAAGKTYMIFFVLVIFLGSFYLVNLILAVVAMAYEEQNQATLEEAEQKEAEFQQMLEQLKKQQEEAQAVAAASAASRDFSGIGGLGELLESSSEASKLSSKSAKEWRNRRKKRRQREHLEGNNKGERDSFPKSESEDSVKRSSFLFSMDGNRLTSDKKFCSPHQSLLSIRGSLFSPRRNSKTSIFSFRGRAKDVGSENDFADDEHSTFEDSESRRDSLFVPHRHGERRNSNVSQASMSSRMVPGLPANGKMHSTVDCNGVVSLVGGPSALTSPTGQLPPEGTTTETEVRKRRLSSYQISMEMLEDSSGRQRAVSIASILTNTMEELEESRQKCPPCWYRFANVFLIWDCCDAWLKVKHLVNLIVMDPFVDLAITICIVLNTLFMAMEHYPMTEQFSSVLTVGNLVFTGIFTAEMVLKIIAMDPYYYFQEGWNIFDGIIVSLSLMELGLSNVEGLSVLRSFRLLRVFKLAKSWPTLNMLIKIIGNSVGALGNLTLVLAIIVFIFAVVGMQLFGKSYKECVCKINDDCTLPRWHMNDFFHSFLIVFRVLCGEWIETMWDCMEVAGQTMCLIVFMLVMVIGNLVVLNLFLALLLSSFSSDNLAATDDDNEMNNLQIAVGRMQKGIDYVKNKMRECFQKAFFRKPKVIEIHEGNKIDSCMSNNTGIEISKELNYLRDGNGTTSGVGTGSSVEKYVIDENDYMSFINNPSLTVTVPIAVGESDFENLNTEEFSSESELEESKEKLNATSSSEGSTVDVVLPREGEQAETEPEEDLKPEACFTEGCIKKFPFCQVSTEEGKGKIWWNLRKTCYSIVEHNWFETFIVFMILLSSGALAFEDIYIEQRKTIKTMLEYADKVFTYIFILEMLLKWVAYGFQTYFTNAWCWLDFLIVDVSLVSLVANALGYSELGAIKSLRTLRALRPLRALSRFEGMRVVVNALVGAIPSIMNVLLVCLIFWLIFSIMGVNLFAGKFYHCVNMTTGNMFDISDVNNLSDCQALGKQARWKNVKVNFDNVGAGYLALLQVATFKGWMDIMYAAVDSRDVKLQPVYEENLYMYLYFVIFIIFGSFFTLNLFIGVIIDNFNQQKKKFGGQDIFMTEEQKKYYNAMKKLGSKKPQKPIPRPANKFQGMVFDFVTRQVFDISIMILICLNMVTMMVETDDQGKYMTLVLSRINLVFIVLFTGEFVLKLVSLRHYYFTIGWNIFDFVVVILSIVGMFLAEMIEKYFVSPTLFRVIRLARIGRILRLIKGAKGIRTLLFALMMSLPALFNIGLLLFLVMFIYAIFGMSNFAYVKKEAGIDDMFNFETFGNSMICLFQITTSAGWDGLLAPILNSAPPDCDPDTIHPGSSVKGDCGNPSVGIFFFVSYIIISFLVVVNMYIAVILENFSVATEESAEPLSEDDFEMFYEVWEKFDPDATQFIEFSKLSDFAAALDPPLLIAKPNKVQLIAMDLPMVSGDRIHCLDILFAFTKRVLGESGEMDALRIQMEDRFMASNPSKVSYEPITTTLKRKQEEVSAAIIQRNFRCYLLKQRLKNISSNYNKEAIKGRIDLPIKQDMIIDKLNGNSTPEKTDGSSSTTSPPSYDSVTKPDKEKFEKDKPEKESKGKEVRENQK

For the compound `CC[C@H](C)[C@@H]1NC(=O)[C@@H]2CSSC[C@@H]3NC(=O)[C@H](C(C)C)NC(=O)[C@H](CC(C)C)NC(=O)[C@H](CC(N)=O)NC(=O)[C@@H]4CCCN4C(=O)[C@H](CCCNC(=N)N)NC(=O)[C@H](CSSC[C@H](NC(=O)[C@@H](N)CC(=O)O)C(=O)N[C@@H](CC(C)C)C(=O)NCC(=O)N[C@@H](C)C(=O)N[C@@H](Cc4ccccc4)C(=O)N[C@@H](CCCNC(=N)N)C(=O)N[C@@H](CCCCN)C(=O)N2)NC(=O)[C@H](CSSC[C@@H](C(=O)N[C@@H](CCCCN)C(=O)N[C@@H](Cc2ccc(O)cc2)C(=O)N[C@H](C(=O)N[C@@H](Cc2ccccc2)C(=O)O)C(C)C)NC(=O)[C@H](Cc2c[nH]c4ccccc24)NC(=O)[C@H](CCCNC(=N)N)NC(=O)[C@H](Cc2c[nH]cn2)NC(=O)[C@H]([C@@H](C)O)NC(=O)[C@H](CCCNC(=N)N)NC(=O)[C@H](CO)NC3=O)NC(=O)[C@H](CCCCN)NC(=O)[C@H](CC(=O)O)NC(=O)[C@H](CCCNC(=N)N)NC(=O)[C@H](CC(=O)O)NC(=O)[C@@H]2CCCN2C1=O` [compound 848], the IC50 at hNav1.7 is 4.5 µM; at hNav1.5 it was above 5 µM; at hNav1.3, 600 nM.
As to `CC[C@H](C)[C@@H]1NC(=O)[C@@H]2CSSC[C@@H]3NC(=O)[C@H](C(C)C)NC(=O)[C@H](CC(C)C)NC(=O)[C@H](CC(N)=O)NC(=O)[C@@H]4CCCN4C(=O)[C@H](CCCNC(=N)N)NC(=O)[C@H](CSSC[C@H](NC(=O)[C@@H](N)CC(=O)O)C(=O)N[C@@H](CC(C)C)C(=O)NCC(=O)N[C@@H](C)C(=O)N[C@@H](Cc4ccccc4)C(=O)N[C@@H](CCCNC(=N)N)C(=O)N[C@@H](CCCCN)C(=O)N2)NC(=O)[C@H](CSSC[C@@H](C(=O)N[C@@H](CCCCN)C(=O)N[C@@H](Cc2ccc(O)cc2)C(=O)N[C@H](C(=O)N[C@@H](Cc2ccccc2)C(=O)O)C(C)C)NC(=O)[C@H](Cc2c[nH]c4ccccc24)NC(=O)[C@H](CCCNC(=N)N)NC(=O)[C@H](Cc2c[nH]cn2)NC(=O)[C@H]([C@@H](C)O)NC(=O)[C@H](CCCNC(=N)N)NC(=O)[C@H](CO)NC3=O)NC(=O)[C@H](CCCCN)NC(=O)[C@H](CC(=O)O)NC(=O)[C@H](CO)NC(=O)[C@H](CC(=O)O)NC(=O)[C@@H]2CCCN2C1=O` [compound 849], the IC50 is above 5 µM at hNav1.7, above 5 µM on hNav1.5 and 1100 nM on hNav1.3.
With `CC[C@H](C)[C@@H]1NC(=O)[C@@H]2CSSC[C@@H]3NC(=O)[C@H](C(C)C)NC(=O)[C@H](CC(C)C)NC(=O)[C@H](CC(N)=O)NC(=O)[C@@H]4CCCN4C(=O)[C@H](CCCNC(=N)N)NC(=O)[C@H](CSSC[C@H](NC(=O)[C@@H](N)CC(=O)O)C(=O)N[C@@H](CC(C)C)C(=O)NCC(=O)N[C@@H](C)C(=O)N[C@@H](Cc4ccccc4)C(=O)N[C@@H](CCCNC(=N)N)C(=O)N[C@@H](CCCCN)C(=O)N2)NC(=O)[C@H](CSSC[C@@H](C(=O)N[C@@H](CCCCN)C(=O)N[C@@H](Cc2ccc(O)cc2)C(=O)N[C@H](C(=O)N[C@@H](Cc2ccccc2)C(=O)O)C(C)C)NC(=O)[C@H](Cc2c[nH]c4ccccc24)NC(=O)[C@H](CCCNC(=N)N)NC(=O)[C@H](Cc2c[nH]cn2)NC(=O)[C@H]([C@@H](C)O)NC(=O)[C@H](CCCNC(=N)N)NC(=O)[C@H](CO)NC3=O)NC(=O)[C@H](CCCCN)NC(=O)[C@H](CC(=O)O)NC(=O)[C@H]([C@@H](C)O)NC(=O)[C@H](CC(=O)O)NC(=O)[C@@H]2CCCN2C1=O` [compound 850], the figures for the IC50 on hNav1.7, at hNav1.5 and on hNav1.3 were above 5 µM, above 5 µM and 1300 nM, respectively.
With `CC[C@H](C)[C@@H]1NC(=O)[C@@H]2CSSC[C@@H]3NC(=O)[C@H](C(C)C)NC(=O)[C@H](CC(C)C)NC(=O)[C@H](CC(N)=O)NC(=O)[C@@H]4CCCN4C(=O)[C@H](CCCNC(=N)N)NC(=O)[C@H](CSSC[C@H](NC(=O)[C@@H](N)CC(=O)O)C(=O)N[C@@H](CC(C)C)C(=O)NCC(=O)N[C@@H](C)C(=O)N[C@@H](Cc4ccccc4)C(=O)N[C@@H](CCCNC(=N)N)C(=O)N[C@@H](CCCCN)C(=O)N2)NC(=O)[C@H](CSSC[C@@H](C(=O)N[C@@H](CCCCN)C(=O)N[C@@H](Cc2ccc(O)cc2)C(=O)N[C@H](C(=O)N[C@@H](Cc2ccccc2)C(=O)O)C(C)C)NC(=O)[C@H](Cc2c[nH]c4ccccc24)NC(=O)[C@H](CCCNC(=N)N)NC(=O)[C@H](Cc2c[nH]cn2)NC(=O)[C@H]([C@@H](C)O)NC(=O)[C@H](CCCNC(=N)N)NC(=O)[C@H](CO)NC3=O)NC(=O)[C@H](CCCCN)NC(=O)[C@H](CC(=O)O)NC(=O)[C@H](C(C)C)NC(=O)[C@H](CC(=O)O)NC(=O)[C@@H]2CCCN2C1=O` [compound 851], the IC50 on hNav1.7 was above 5 µM; on hNav1.5, above 5 µM; on hNav1.3 it was 1700 nM.
In the case of `CC[C@H](C)[C@@H]1NC(=O)[C@@H]2CSSC[C@@H]3NC(=O)[C@H](C(C)C)NC(=O)[C@H](CC(C)C)NC(=O)[C@H](CC(N)=O)NC(=O)[C@@H]4CCCN4C(=O)[C@H](CCCNC(=N)N)NC(=O)[C@H](CSSC[C@H](NC(=O)[C@@H](N)CC(=O)O)C(=O)N[C@@H](CC(C)C)C(=O)NCC(=O)N[C@@H](C)C(=O)N[C@@H](Cc4ccccc4)C(=O)N[C@@H](CCCNC(=N)N)C(=O)N[C@@H](CCCCN)C(=O)N2)NC(=O)[C@H](CSSC[C@@H](C(=O)N[C@@H](CCCCN)C(=O)N[C@@H](Cc2ccc(O)cc2)C(=O)N[C@H](C(=O)N[C@@H](Cc2ccccc2)C(=O)O)C(C)C)NC(=O)[C@H](Cc2c[nH]c4ccccc24)NC(=O)[C@H](CCCNC(=N)N)NC(=O)[C@H](Cc2c[nH]cn2)NC(=O)[C@H]([C@@H](C)O)NC(=O)[C@H](CCCNC(=N)N)NC(=O)[C@H](CO)NC3=O)NC(=O)[C@H](CCCCN)NC(=O)[C@H](CC(=O)O)NC(=O)[C@H](Cc2c[nH]c3ccccc23)NC(=O)[C@H](CC(=O)O)NC(=O)[C@@H]2CCCN2C1=O` [compound 852], the IC50 at hNav1.7 was above 5 µM; at hNav1.5, above 5 µM; on hNav1.3, above 5000 nM.
Regarding `CC[C@H](C)[C@@H]1NC(=O)[C@@H]2CSSC[C@@H]3NC(=O)[C@H](C(C)C)NC(=O)[C@H](CC(C)C)NC(=O)[C@H](CC(N)=O)NC(=O)[C@@H]4CCCN4C(=O)[C@H](CCCNC(=N)N)NC(=O)[C@H](CSSC[C@H](NC(=O)[C@@H](N)CC(=O)O)C(=O)N[C@@H](CC(C)C)C(=O)NCC(=O)N[C@@H](C)C(=O)N[C@@H](CC(C)C)C(=O)N[C@@H](CCCNC(=N)N)C(=O)N[C@@H](CCCCN)C(=O)N2)NC(=O)[C@H](CSSC[C@@H](C(=O)N[C@@H](CCCCN)C(=O)N[C@@H](Cc2ccc(O)cc2)C(=O)N[C@H](C(=O)N[C@@H](Cc2ccccc2)C(=O)O)C(C)C)NC(=O)[C@H](Cc2c[nH]c4ccccc24)NC(=O)[C@H](CCCNC(=N)N)NC(=O)[C@H](Cc2c[nH]cn2)NC(=O)[C@H]([C@@H](C)O)NC(=O)[C@H](CCCNC(=N)N)NC(=O)[C@H](CO)NC3=O)NC(=O)[C@H](CCCCN)NC(=O)[C@H](CC(=O)O)NC(=O)[C@H](CC(N)=O)NC(=O)[C@H](CC(=O)O)NC(=O)[C@@H]2CCCN2C1=O` [compound 853] (H-DCLGALRKCIPDNDKCCRPNLVCSRTHRWCKYVF-OH; disulfide 2-17, 9-23, 16-30), the IC50 on hNav1.7 was above 5 µM; on hNav1.5, above 5 µM; on hNav1.3 it was above 5000 nM.
Consider `CC[C@H](C)[C@@H]1NC(=O)[C@@H]2CSSC[C@@H]3NC(=O)[C@H](C(C)C)NC(=O)[C@H](CC(C)C)NC(=O)[C@H](CC(N)=O)NC(=O)[C@@H]4CCCN4C(=O)[C@H](CCCNC(=N)N)NC(=O)[C@H](CSSC[C@H](NC(=O)[C@@H](N)CC(=O)O)C(=O)N[C@@H](CC(C)C)C(=O)NCC(=O)N[C@@H](C)C(=O)N[C@@H](CC(C)C)C(=O)N[C@@H](CCCNC(=N)N)C(=O)N[C@@H](CCCCN)C(=O)N2)NC(=O)[C@H](CSSC[C@@H](C(=O)N[C@@H](CCCCN)C(=O)N[C@@H](Cc2ccc(O)cc2)C(=O)N[C@H](C(=O)N[C@@H](Cc2ccccc2)C(=O)O)C(C)C)NC(=O)[C@H](Cc2c[nH]c4ccccc24)NC(=O)[C@H](CC(=O)O)NC(=O)[C@H](Cc2c[nH]cn2)NC(=O)[C@H]([C@@H](C)O)NC(=O)[C@H](CCCNC(=N)N)NC(=O)[C@H](CO)NC3=O)NC(=O)[C@H](CCCCN)NC(=O)[C@H](CC(=O)O)NC(=O)[C@H](CC(N)=O)NC(=O)[C@H](CC(=O)O)NC(=O)[C@@H]2CCCN2C1=O` [compound 854] (H-DCLGALRKCIPDNDKCCRPNLVCSRTHDWCKYVF-OH; disulfide 2-17, 9-23, 16-30), for which the IC50 at hNav1.7 is above 5 µM; at hNav1.5, above 5 µM; on hNav1.3, above 5000 nM.
As for `CC[C@H](C)[C@@H]1NC(=O)[C@@H]2CSSC[C@@H]3NC(=O)[C@H](C(C)C)NC(=O)[C@H](CC(C)C)NC(=O)[C@H](CC(N)=O)NC(=O)[C@@H]4CCCN4C(=O)[C@H](CCCNC(=N)N)NC(=O)[C@H](CSSC[C@H](NC(=O)[C@@H](N)CC(=O)O)C(=O)N[C@@H](CC(C)C)C(=O)NCC(=O)N[C@@H](C)C(=O)N[C@@H](CC(C)C)C(=O)N[C@@H](CCCNC(=N)N)C(=O)N[C@@H](CCCCN)C(=O)N2)NC(=O)[C@H](CSSC[C@@H](C(=O)N[C@@H](CCCCN)C(=O)N[C@@H](Cc2ccc(O)cc2)C(=O)N[C@H](C(=O)N[C@@H](Cc2ccccc2)C(=O)O)C(C)C)NC(=O)[C@H](Cc2c[nH]c4ccccc24)NC(=O)[C@H](CCC(=O)O)NC(=O)[C@H](Cc2c[nH]cn2)NC(=O)[C@H]([C@@H](C)O)NC(=O)[C@H](CCCNC(=N)N)NC(=O)[C@H](CO)NC3=O)NC(=O)[C@H](CCCCN)NC(=O)[C@H](CC(=O)O)NC(=O)[C@H](CC(N)=O)NC(=O)[C@H](CC(=O)O)NC(=O)[C@@H]2CCCN2C1=O` [compound 855], the IC50 at hNav1.7 is above 5 µM; at hNav1.5, above 5 µM; on hNav1.3 it was above 5000 nM.
